# Laboratory results: ChEMBL document CHEMBL5096230 (J Med Chem, 2022)
# Key:
# Type in all cases: organism-based
# Details in all cases: in vivo, 120 h, time 5 day
# [1] = Toxicity in BALB/c mouse at 50 mg/kg, iv administered daily for 5 days
# [2] = Toxicity in BALB/c mouse assessed as animal death at 8 mg/kg, iv administered daily for 5 days and measured after 2 dose
# [3] = Toxicity in BALB/c mouse assessed as lethargy at 8 mg/kg, iv administered daily for 5 days
SMILES,Activity [1],Activity [2],Activity [3]
CC(C)C[C@H](NC(=O)[C@H](Cc1ccc(N)cc1)NC(=O)CN1CCNCC1)C(=O)N[C@@H](C)C(=O)N[C@@H](Cc1ccc(-c2ccccc2C(F)(F)F)cc1)C(=O)N1CCC[C@H]1C(=O)N[C@@H](CC(=O)O)C(=O)N[C@@H](C)C(=O)N[C@H](C(=O)N1CCC[C@H]1C(=O)N[C@@H](Cc1ccccc1)C(=O)N[C@@H](CCCNC(=N)N)C(=O)N1CCC[C@H]1C(=O)NCC(=O)NCCCC[C@H](NC(=O)CNC(=O)[C@@H]1CCCN1C(=O)[C@H](CCCNC(=N)N)NC(=O)[C@H](Cc1ccccc1)NC(=O)[C@@H]1CCCN1C(=O)[C@@H](NC(=O)[C@H](C)NC(=O)[C@H](CC(=O)O)NC(=O)[C@@H]1CCCN1C(=O)[C@H](Cc1ccc(-c2ccccc2C(F)(F)F)cc1)NC(=O)[C@H](C)NC(=O)[C@H](CC(C)C)NC(=O)[C@H](Cc1ccc(N)cc1)NC(=O)CN1CCNCC1)C1CCCCC1)C(=O)NCC(=O)N[C@@H](CCCCNC(=O)CCCc1cn(CCCCCC(=O)O)nn1)C(N)=O)C1CCCCC1,Non-Toxic,,
CC(=O)O[C@H]1C(=O)[C@@]2(C)[C@H]([C@H](OC(=O)c3ccccc3)[C@]3(O)C[C@H](OC(=O)[C@H](OC(=O)CCCCCn4cc(CCCC(=O)NCCCC[C@H](NC(=O)CNC(=O)[C@H](CCCCNC(=O)CNC(=O)[C@@H]5CCCN5C(=O)[C@H](CCCNC(=N)N)NC(=O)[C@H](Cc5ccccc5)NC(=O)[C@@H]5CCCN5C(=O)[C@@H](NC(=O)[C@H](C)NC(=O)[C@H](CC(=O)O)NC(=O)[C@@H]5CCCN5C(=O)[C@H](Cc5ccc(-c6ccccc6C(F)(F)F)cc5)NC(=O)[C@H](C)NC(=O)[C@H](CC(C)C)NC(=O)[C@H](Cc5ccc(N)cc5)NC(=O)CN5CCNCC5)C5CCCCC5)NC(=O)CNC(=O)[C@@H]5CCCN5C(=O)[C@H](CCCNC(=N)N)NC(=O)[C@H](Cc5ccccc5)NC(=O)[C@@H]5CCCN5C(=O)[C@@H](NC(=O)[C@H](C)NC(=O)[C@H](CC(=O)O)NC(=O)[C@@H]5CCCN5C(=O)[C@H](Cc5ccc(-c6ccccc6C(F)(F)F)cc5)NC(=O)[C@H](C)NC(=O)[C@H](CC(C)C)NC(=O)[C@H](Cc5ccc(N)cc5)NC(=O)CN5CCNCC5)C5CCCCC5)C(N)=O)nn4)[C@@H](NC(=O)c4ccccc4)c4ccccc4)C(C)=C1C3(C)C)[C@]1(OC(C)=O)CO[C@@H]1C[C@@H]2O,Non-Toxic,,
CC(=O)O[C@H]1C(=O)[C@@]2(C)[C@H]([C@H](OC(=O)c3ccccc3)[C@]3(O)C[C@H](OC(=O)[C@H](O)[C@@H](NC(=O)c4ccccc4)c4ccccc4)C(C)=C1C3(C)C)[C@]1(OC(C)=O)CO[C@@H]1C[C@@H]2O [PACLITAXEL],,Toxic,Toxic
